For the assay, the target named is interaction between ACE-2 receptor and spike S1 protein of SARS-CoV2 (Severe acute respiratory syndrome coronavirus 2, UniProt P0DTC2).

As to DKFNHEAEDLFY [Peptide 4], the “interaction between ACE-2 receptor and spike S1 protein in presence of peptide” value is reported as “blocked”.

With QTFDKNHEDLYLQAKQLK [Peptide 3], the “interaction between ACE-2 receptor and spike S1 protein in presence of peptide” value is reported as “blocked”.

The values above are taken from patent publication US20240150398A1, “PEPTIDES AND CONJUGATES THEREOF AS ACE-2 AND S1 SUBUNIT MIMICS AGAINST SEVERE ACUTE RESPIRATORY SYNDROME CORONAVIRUS-2 (SARS-COV2) INFECTION” (priority 2020, published 2024).
